The record followed here is publication PMC9832345 (RSC Advances, 2023).

The subject of this assay is third instar larvae of Spodoptera litura. Put plainly: Leaf-dip larvicidal assay. Particulars: for Eating area (%): 96 h. The assay is classed as in vivo.

With `CNC(=O)c1cc(Cl)cc(C)c1NC(=O)c1cc(Br)nn1-c1ncccc1Cl` [Chlorantraniliprole, chlorantraniliprole], the “Eating area (%)” value runs as follows: (6.25 ppm) 0–5%; (12.5 ppm) 0–5%. Also, the eating area (concentration not given) is listed as 0–5%.
As to `Cc1cc(Cl)cc(S(C)(=O)=O)c1NC(=O)c1cc(Br)nn1-c1ncccc1Cl` [Compound 8], the “Eating area (%)” value is given as 0–5% (6.25 ppm) and 0–5% (12.5 ppm).
